The assay deals with T1, α4 nAChR (Rattus norvegicus, UniProt P09483+P12390).
T1 construct: from tissue; host or cells: rat cortical brain membranes
In words: Affinity at α4 nAChR by [125I]-IPH binding to rat cortical membranes. To be noted: saturation curves fitted to a one site model. The method, then:
Assay for Affinity at an α4 nAChR Receptor by Measuring the Binding of […] Binding to Rat Cortical Membranes
A procedure modified from Martino-Barrows and Kellar (Mol Pharm (1987) 31:169-174) may be used. Rat cortical brain membranes are prepared as described in the [^125I]α-BTX binding assay, except that a 500-12000×g membrane fraction is prepared. Membranes (30-150 μg) are incubated with 30-100 pM of the epibatidine analog [^125I]-IPH ((+/−)-exo-2-(2-iodo-5-pyridyl)-7-azabicyclo-[2,2,1]heptane) together with test compound in HB for 1 hour at room temperature with gentle shaking. Membranes may be recovered as described for the [^125I]α-BTX binding assay. Non-specific binding may be determined by 100 μM carbachol. Typically specific binding is about 84%.
Analysis of Binding Data Obtained in α7 nAChR or α4 nAChR Receptor Assays
IC50 values and pseudo Hill coefficients (nH) may be calculated using the non-linear curve fitting program ALLFIT (DeLean A, Munson P J and Rodbard D (1977) Am. J. Physiol., 235:E97-E102). […] Ki values may be estimated using the general Cheng-Prusoff equation:
Ki=[IC50]/((2+ligand/KD)^n)^1/n−1)
where a value of n=1 is used whenever nH<1.5 and a value of n=2 is used when nH≧1.5. To account for variability, assays may be performed in triplicate and variability will typically be ±5%. Ki values may be determined using six to 11 drug concentrations.

Each structure is given as a SMILES string.

T1 sequence (P12390 25-500): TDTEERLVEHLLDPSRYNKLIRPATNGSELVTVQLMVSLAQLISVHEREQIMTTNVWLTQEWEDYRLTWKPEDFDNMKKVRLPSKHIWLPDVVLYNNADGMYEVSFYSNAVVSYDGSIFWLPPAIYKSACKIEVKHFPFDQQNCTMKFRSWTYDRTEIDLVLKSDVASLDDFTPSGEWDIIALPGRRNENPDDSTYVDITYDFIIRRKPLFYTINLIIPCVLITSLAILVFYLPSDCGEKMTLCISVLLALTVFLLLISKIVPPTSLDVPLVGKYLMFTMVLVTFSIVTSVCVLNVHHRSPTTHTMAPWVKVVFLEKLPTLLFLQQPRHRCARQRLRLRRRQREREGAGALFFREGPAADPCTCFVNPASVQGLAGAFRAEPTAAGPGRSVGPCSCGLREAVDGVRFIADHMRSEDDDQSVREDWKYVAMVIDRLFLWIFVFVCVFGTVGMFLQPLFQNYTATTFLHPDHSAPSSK
T1 sequence (P09483 31-630): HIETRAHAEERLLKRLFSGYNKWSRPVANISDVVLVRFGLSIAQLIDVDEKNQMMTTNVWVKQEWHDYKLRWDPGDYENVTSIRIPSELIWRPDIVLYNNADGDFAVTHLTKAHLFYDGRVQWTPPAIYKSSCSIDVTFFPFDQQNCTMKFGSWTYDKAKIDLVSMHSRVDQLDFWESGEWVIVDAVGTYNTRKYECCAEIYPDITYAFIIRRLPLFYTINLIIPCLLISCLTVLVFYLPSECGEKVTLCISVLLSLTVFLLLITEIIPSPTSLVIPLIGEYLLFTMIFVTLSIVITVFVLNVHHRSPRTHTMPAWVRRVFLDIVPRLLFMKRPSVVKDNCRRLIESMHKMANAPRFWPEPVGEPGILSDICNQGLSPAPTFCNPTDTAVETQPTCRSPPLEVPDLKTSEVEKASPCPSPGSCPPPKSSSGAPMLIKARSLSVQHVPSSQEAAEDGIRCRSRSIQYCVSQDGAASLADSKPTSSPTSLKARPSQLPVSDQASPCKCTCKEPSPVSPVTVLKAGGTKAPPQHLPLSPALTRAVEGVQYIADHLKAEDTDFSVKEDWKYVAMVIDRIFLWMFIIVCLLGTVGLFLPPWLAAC

`Ic1ccc(C2CC3CCC2N3)cn1` (racemic) [[^125I]-IPH, (+/−)-exo-2-(2-iodo-5-pyridyl)-7-azabicyclo-[2,2,1]heptane]: binding was put at a Kd of 64 pM.

(Values after patent US20080103170A1, “Nicotinic Acetylcholine Receptor Ligands” (AstraZeneca AB, priority 2004, published 2008).)
